Where two headings read alike, the source gives them in different places. Marks after values point to notes of the source that are not given here.
Key:
immunecompromised mice [1] = assay type: in vivo; details: for Antibody titer % change compared to control / Antibody titer mean ± S.E.: titre on 5th day; for Antibody titer mean ± S.E.: n=12
immunecompromised mice [2] = assay type: in vivo; details: for DTH mean ± S.E.: n=12
[3] = 0.0006 mg/kg p.o., day 0-4, immunecompromised mice
[4] = 0.0125 mg/kg p.o., day 0-4, immunecompromised mice
[5] = oral, dose levels 0.0062-0.0125 mg Kg^-1, immunecompromised experimental animals
[6] = 0.0006 mg/kg p.o., day 0-4, immunecompromised mice, foot thickness on 5th day
[7] = 0.0125 mg/kg p.o., day 0-4, immunecompromised mice, foot thickness on 5th day
[8] = 250 mg/kg p.o., day 0-4, SRBC-sensitized mice
[9] = 2.5 mg/kg p.o., day 0-4, immunecompromised mice
[10] = 2.5 mg/kg p.o., day 0-4, immunecompromised mice, foot thickness on 5th day

Compound: 3-0-[α-L-rhamnopyranosyl-(1→2)-α-L-rhamnopyranosyl-(1→4)-0-β-D-glucopyranosyl]-25(S)-5β-spirostan-3β-ol [AR-Iv]
- Antibody titer % change compared to control (immunecompromised mice [1]; [3]): 56** %
- Antibody titer mean ± S.E. (immunecompromised mice [1]; [3]): 5.60 ± 0.33
- Antibody titer % change compared to control (immunecompromised mice [1]; [4]): 78*** %
- Antibody titer mean ± S.E. (immunecompromised mice [1]; [4]): 6.41 ± 0.16
- potentiation of antibody synthesis (immunecompromised mice [1]; [5]): 55.55-69.44%
- DTH % change compared to control (immunecompromised mice [2]; [6]): 78*** %
- DTH mean ± S.E. (immunecompromised mice [2]; [6]): 0.80 ± 0.14
- DTH % change compared to control (immunecompromised mice [2]; [7]): 102*** %
- DTH mean ± S.E. (immunecompromised mice [2]; [7]): 0.91 ± 0.42
- enhancement of cell-mediated immune response (immunecompromised mice [2]; [5]): 77.77-102.22%

Compound: Cyclodextrin [reference compound]
- Antibody titer % change compared to control (immunecompromised mice [1]; [8]): 45* %
- Antibody titer mean ± S.E. (immunecompromised mice [1]; [8]): 3.60 ± 0.33
- DTH mean ± S.E. (immunecompromised mice [2]; 250 mg/kg p.o., day 0-4, SRBC challenge in footpad on 4th day, foot thickness on 5th day): 0.45 ± 0.24
- DTH % change compared to control (immunecompromised mice [2]; 250 mg/kg p.o., day 0-4, foot thickness on 5th day): 23* %

Compound: c1ccc([C@H]2CN3CCSC3=N2)cc1 [LEV, Levamisole, reference compound]
- Antibody titer % change compared to control (immunecompromised mice [1]; [9]): 89*** %
- Antibody titer mean ± S.E. (immunecompromised mice [1]; [9]): 6.80 ± 0.30
- DTH % change compared to control (immunecompromised mice [2]; [10]): 140*** %
- DTH mean ± S.E. (immunecompromised mice [2]; [10]): 1.08 ± 0.14

Source: patent publication US6649745B2 (priority 2002, dated 2003)
